The values below come from ChEMBL document CHEMBL1201862, “PubChem BioAssay data set” (2004).

The source made the active and inactive calls.

Experiment [1] concerns the target T1, Mannose-6-phosphate isomerase (Homo sapiens, UniProt P34949).
T1 sequence (P34949 whole entry): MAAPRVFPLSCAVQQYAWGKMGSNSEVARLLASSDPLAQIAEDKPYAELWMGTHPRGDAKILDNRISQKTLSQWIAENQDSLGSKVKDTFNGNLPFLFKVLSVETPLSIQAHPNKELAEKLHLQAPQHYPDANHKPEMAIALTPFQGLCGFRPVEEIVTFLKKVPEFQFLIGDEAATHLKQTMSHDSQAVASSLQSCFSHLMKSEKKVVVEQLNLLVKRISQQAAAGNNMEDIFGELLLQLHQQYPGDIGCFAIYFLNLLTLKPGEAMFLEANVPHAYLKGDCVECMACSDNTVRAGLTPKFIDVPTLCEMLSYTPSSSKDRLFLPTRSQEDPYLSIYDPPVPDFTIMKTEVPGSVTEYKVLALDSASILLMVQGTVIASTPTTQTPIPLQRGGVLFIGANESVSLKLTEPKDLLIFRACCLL
As to the kind of experiment: MPI enzyme activity inhibition – biochemical, fluorescence intensity, coupled assay, primary screen (AID 1209).

Experiment [2] in a line: Fluorescence-based biochemical high throughput screening dose response assay to identify inhibitors of Crimean-Congo Hemorrhagic Fever (CCHF) viral ovarian tumor domain protease (vOTU): Pep-AMC substrate.
Experiment [3] is described as follows: alpha-synuclein stem-loop luciferase translation blockers – H4 neuroglioma cells, luminescence, confirmation (AID 1988). Format: functional, cell-based.
The target in experiment [4] is T2, Heat shock factor protein 1 (Mus musculus, UniProt P38532).
T2 sequence (P38532 whole entry): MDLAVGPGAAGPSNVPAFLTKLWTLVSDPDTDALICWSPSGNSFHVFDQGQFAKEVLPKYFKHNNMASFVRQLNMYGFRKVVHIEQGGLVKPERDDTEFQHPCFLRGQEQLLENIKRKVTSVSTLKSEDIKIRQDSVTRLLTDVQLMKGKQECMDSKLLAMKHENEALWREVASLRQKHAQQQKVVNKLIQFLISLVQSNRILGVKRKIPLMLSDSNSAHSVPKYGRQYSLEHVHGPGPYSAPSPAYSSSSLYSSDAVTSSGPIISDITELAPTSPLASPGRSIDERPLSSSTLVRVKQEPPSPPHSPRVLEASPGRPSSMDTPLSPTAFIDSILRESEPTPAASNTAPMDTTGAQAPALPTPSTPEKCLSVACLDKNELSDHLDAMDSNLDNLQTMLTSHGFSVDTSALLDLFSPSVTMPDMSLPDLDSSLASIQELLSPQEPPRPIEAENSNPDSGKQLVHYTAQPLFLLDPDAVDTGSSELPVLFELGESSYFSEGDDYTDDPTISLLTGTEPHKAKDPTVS
Nature of the experiment: decrease of HSF1-responsive luciferase luminescence – cell-based, NIH3T3, dose retest, confirmation (AID 2382).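 Further: NIH3T3 fibroblasts with HSF1-driven luciferase reporter stressed by proteasome inhibitor MG132; luminescence from HSF1-driven luciferase expression after 8 hours of MG132 stress.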 It counts as functional.

Experiment [5] concerns the target Dual specificity tyrosine-phosphorylation-regulated kinase 1A (Homo sapiens, UniProt Q13627). It counts as functional.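 Further: measured against DYRK1A as one member of a broad kinome profiling panel.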
Experiment [6] has as its target Proto-oncogene tyrosine-protein kinase ROS (Homo sapiens, UniProt P08922). It counts as functional.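 Further: ROS1 tested as one member of a kinome-wide kinase panel.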
Experiment [7] concerns the target Non-receptor tyrosine-protein kinase TYK2 (Homo sapiens, UniProt P29597). It counts as functional.
Experiment [8] has as its target Serine/threonine-protein kinase TBK1 (Homo sapiens, UniProt Q9UHD2). As to the kind of experiment: Navigating the Kinome. Panel member name: TBK1. It counts as functional.
Experiment [9] concerns the target Protein kinase C iota type (Homo sapiens, UniProt P41743). Format: functional.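 Further: measured within a kinome-wide kinase panel, PRKCI as panel member.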
Experiment [10] addresses Dual specificity protein kinase CLK2 (Homo sapiens, UniProt P49760). It counts as functional.
The target of experiment [11] is Macrophage-stimulating protein receptor (Homo sapiens, UniProt Q04912). As to the kind of experiment: Navigating the Kinome. Panel member name: MST1R. It counts as functional.
Experiment [12] deals with Macrophage colony-stimulating factor 1 receptor (Homo sapiens, UniProt P07333). It counts as functional.
Experiment [13] concerns the target Leucine-rich repeat serine/threonine-protein kinase 2 (Homo sapiens, UniProt Q5S007). It counts as functional.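 Further: value from a broad kinome-wide panel profiling study in which LRRK2 was one of the kinases tested.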
Experiment [14] concerns the target Rho-associated protein kinase 1 (Homo sapiens, UniProt Q13464). Format: functional.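 Further: measured within a broad kinome-wide panel profiling many kinases.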
Experiment [15] concerns the target SRSF protein kinase 1 (Homo sapiens, UniProt Q96SB4). Format: functional.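 Further: measured as one member of a kinome-wide kinase profiling panel.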
For experiment [16], the target named is Interleukin-1 receptor-associated kinase 1 (Homo sapiens, UniProt P51617). Format: functional.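 Further: IRAK1 tested as one member of a kinome panel.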
For experiment [17], the target named is Serine/threonine-protein kinase Chk1 (Homo sapiens, UniProt O14757). It counts as functional.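 Further: measured as one member of a kinome-wide kinase profiling panel.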
For experiment [18], the target named is Dual specificity tyrosine-phosphorylation-regulated kinase 3 (Homo sapiens, UniProt O43781). Format: functional.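 Further: measured as one member of a broad kinase panel.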
Dual specificity tyrosine-phosphorylation-regulated kinase 3, sequence (O43781 whole entry): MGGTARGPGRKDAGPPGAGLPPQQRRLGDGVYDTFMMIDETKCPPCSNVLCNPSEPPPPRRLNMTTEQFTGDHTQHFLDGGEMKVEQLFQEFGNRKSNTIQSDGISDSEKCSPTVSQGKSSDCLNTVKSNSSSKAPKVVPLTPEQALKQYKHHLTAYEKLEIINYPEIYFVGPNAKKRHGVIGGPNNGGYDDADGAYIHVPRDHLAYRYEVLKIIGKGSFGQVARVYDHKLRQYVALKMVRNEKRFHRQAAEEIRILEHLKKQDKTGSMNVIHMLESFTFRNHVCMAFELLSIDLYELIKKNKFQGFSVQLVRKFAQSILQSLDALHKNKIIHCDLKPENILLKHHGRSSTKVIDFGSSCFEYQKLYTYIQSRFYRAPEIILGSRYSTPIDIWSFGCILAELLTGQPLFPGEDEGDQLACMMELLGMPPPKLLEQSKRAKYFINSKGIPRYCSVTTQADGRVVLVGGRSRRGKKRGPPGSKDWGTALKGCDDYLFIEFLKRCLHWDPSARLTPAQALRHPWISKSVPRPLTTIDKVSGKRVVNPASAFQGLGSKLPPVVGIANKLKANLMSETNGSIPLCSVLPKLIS
Experiment [19] concerns the target Testis-specific serine/threonine-protein kinase 2 (Homo sapiens, UniProt Q96PF2). It counts as functional.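 Further: part of the Navigating the Kinome panel, target entry STK22B.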
In experiment [20] the target is Vascular endothelial growth factor receptor 3 (Homo sapiens, UniProt P35916). It counts as functional.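 Further: value from a kinome-wide profiling panel, with FLT4 as the panel member.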
Experiment [21] addresses Testis-specific serine/threonine-protein kinase 1 (Homo sapiens, UniProt Q9BXA7). Format: functional.
Experiment [22] has as its target Cyclin-dependent kinase 9 (Homo sapiens, UniProt P50750). It counts as functional.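 Further: value from the CDK9 entry of a kinome-spanning kinase panel.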
Experiment [23] addresses Misshapen-like kinase 1 (Homo sapiens, UniProt Q8N4C8). Format: functional.
Experiment [24] has as its target MAP/microtubule affinity-regulating kinase 3 (Homo sapiens, UniProt P27448). Format: functional.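 Further: MARK3 affinity measured as one member of a kinome panel.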
In experiment [25] the target is Receptor tyrosine-protein kinase erbB-4 (Homo sapiens, UniProt Q15303). Format: functional.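 Further: ERBB4 member of a kinome-wide kinase profiling panel.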
Receptor tyrosine-protein kinase erbB-4, sequence (Q15303 whole entry): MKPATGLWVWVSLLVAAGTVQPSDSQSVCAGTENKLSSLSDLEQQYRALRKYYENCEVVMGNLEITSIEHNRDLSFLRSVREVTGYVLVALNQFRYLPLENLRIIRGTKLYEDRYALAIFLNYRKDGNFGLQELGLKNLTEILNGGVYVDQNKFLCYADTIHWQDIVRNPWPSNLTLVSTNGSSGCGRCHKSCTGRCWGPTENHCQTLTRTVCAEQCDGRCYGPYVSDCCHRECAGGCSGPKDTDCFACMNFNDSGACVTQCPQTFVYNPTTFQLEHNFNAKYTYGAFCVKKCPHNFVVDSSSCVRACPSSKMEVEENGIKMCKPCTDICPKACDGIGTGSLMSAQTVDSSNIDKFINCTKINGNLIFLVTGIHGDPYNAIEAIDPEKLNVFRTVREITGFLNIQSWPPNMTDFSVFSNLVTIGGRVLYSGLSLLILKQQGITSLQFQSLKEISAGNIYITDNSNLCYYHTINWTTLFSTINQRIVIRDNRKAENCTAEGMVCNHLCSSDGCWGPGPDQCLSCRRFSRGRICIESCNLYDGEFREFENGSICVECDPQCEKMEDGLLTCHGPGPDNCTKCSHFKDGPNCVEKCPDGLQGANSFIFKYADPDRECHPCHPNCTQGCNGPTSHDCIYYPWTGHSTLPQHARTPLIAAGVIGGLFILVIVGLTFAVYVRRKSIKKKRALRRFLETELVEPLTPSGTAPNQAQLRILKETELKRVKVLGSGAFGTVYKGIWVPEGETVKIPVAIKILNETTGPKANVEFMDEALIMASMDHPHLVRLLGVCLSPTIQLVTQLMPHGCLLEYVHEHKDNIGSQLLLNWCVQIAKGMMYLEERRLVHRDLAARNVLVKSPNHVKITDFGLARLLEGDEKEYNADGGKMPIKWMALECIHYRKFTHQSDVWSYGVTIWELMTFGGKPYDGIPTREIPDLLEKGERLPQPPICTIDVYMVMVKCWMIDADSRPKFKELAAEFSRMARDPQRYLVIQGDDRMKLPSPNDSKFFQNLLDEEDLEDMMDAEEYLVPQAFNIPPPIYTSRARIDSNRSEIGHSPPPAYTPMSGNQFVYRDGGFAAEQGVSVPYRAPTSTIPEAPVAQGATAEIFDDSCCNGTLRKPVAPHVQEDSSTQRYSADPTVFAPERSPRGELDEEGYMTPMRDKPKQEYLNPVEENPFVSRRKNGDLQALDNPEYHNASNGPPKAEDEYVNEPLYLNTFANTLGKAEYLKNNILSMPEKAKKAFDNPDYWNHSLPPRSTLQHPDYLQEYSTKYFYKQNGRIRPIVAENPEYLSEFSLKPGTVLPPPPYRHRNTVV
Experiment [26] deals with Activin receptor type-1 (Homo sapiens, UniProt Q04771). Nature of the experiment: Navigating the Kinome. Panel member name: ACVR1. It counts as functional.
For experiment [27], the target named is Death-associated protein kinase 3 (Homo sapiens, UniProt O43293). Format: functional.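 Further: measured as one member of a kinome-wide profiling panel.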
Experiment [28] concerns the target Serine/threonine-protein kinase BRSK1 (Homo sapiens, UniProt Q8TDC3). Format: functional.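 Further: measured within a kinome-wide kinase panel, with the target listed as KIAA1811.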
Experiment [29] concerns the target T3, Caspase-3 (Homo sapiens, UniProt P42574).
T3 sequence (P42574 whole entry): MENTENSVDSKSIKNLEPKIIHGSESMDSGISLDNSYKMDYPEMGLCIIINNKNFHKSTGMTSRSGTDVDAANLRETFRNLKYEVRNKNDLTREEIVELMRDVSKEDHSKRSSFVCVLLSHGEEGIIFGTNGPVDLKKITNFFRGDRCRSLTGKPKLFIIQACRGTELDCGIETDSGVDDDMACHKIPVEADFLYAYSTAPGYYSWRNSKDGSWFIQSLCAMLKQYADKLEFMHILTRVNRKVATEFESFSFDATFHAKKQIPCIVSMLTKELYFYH
As to the kind of experiment: activation of caspase-3 zymogen – biochemical, absorbance, dose response (AID 489014).

Serine/threonine-protein kinase BRSK1, sequence (Q8TDC3 whole entry): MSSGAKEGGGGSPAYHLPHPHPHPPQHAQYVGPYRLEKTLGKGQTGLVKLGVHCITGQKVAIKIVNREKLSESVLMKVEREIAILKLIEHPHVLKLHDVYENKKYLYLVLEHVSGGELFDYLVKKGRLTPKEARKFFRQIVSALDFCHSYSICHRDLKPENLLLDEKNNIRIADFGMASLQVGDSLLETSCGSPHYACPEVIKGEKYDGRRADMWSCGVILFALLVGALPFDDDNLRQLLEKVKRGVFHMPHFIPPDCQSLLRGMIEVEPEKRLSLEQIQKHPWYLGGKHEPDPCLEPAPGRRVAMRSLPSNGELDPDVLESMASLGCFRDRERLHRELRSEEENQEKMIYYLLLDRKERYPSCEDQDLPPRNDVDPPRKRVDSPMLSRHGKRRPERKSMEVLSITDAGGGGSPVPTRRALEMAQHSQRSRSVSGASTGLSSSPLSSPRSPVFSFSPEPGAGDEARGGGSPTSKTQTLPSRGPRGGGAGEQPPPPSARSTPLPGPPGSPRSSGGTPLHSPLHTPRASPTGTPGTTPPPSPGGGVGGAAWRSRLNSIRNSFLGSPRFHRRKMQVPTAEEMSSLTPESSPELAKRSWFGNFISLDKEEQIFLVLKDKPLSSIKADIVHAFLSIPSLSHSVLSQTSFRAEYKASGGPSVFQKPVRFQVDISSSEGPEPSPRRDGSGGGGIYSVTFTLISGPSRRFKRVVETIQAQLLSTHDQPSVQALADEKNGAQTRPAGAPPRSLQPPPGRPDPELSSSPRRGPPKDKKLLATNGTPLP
SRSF protein kinase 1, sequence (Q96SB4 whole entry): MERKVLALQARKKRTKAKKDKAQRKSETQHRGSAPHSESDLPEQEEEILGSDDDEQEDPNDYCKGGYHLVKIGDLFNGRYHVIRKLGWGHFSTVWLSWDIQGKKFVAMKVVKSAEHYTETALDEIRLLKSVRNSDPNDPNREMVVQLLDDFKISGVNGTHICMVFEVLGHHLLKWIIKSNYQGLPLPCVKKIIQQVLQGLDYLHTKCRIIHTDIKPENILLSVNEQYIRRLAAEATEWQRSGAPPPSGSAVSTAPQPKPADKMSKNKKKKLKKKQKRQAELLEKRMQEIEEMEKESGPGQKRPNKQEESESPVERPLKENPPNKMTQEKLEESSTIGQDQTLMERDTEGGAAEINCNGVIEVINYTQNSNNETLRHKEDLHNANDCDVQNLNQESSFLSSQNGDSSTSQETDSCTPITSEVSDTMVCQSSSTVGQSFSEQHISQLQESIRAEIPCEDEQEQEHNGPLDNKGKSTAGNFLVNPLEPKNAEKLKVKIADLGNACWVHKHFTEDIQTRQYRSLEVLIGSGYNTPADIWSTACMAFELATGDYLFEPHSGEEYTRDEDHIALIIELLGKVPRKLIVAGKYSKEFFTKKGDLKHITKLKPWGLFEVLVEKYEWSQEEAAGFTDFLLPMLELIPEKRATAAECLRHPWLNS
Testis-specific serine/threonine-protein kinase 2, sequence (Q96PF2 whole entry): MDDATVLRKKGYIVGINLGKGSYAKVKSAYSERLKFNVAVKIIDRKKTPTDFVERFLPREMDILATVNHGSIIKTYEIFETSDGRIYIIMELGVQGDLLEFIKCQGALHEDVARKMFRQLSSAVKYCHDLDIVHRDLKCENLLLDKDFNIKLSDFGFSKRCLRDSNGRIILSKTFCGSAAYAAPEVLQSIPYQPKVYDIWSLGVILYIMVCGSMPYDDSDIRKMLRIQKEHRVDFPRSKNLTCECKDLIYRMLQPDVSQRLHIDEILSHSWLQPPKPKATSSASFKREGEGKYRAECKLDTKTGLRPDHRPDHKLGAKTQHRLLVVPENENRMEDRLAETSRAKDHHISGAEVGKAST
MAP/microtubule affinity-regulating kinase 3, sequence (P27448 whole entry): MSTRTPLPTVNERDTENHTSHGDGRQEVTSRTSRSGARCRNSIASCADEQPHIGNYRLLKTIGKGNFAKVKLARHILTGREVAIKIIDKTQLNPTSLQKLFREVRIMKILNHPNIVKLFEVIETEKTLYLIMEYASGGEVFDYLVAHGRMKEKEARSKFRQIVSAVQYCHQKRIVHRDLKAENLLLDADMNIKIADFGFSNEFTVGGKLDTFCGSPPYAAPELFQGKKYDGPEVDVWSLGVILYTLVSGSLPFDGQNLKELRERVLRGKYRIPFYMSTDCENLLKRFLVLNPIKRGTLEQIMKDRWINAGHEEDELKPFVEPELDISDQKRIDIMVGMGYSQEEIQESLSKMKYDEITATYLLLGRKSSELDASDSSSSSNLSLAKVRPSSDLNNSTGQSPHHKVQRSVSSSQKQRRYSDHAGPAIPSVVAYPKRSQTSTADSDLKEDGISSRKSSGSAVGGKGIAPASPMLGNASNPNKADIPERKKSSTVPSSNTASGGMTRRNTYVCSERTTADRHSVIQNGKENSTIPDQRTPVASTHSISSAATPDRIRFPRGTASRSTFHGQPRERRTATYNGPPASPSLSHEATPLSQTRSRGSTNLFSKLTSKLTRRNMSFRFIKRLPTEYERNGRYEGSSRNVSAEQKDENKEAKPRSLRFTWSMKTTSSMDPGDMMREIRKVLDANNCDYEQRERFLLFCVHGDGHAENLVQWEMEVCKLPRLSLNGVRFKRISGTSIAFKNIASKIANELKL
Cyclin-dependent kinase 9, sequence (P50750 whole entry): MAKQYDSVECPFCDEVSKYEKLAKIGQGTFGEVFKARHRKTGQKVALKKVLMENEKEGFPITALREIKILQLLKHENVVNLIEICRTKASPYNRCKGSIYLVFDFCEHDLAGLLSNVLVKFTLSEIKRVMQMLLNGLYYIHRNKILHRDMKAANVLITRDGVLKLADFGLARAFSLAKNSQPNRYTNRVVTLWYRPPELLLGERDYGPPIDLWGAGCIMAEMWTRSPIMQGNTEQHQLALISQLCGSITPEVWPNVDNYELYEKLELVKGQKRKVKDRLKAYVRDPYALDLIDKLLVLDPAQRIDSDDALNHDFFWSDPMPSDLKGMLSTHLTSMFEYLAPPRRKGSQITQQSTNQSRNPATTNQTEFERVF

On to `CC(C)N(C(=O)Nc1ccc2nsnc2c1)C(C)C`, for which the IC50 (as a rule, the midpoint of a concentration-inhibition curve) in experiment [1] is > 50 µM (not active); in experiment [2] it was > 4.25 µM (active).

For the molecule `NS(=O)(=O)c1ccc(NC2=CC(=O)C(=O)c3ccccc32)cc1`, the figures for the EC50 in experiment [3] and in experiment [4] were 8.45 µM (active) and > 195 µM (not active), respectively.

As to `Clc1cc(-c2c[nH]c3ncccc23)nc(NC2CCCCC2)n1`, the Ki – broadly, a measure of affinity in units of concentration, obtained from inhibition or displacement – in experiment [5] was 0.02 µM (active); in experiment [6], > 2 µM (inactive); in [7] it was > 2 µM (inactive); in [8], > 3.16 µM (inactive); in experiment [9], > 5.01 µM (inactive); in experiment [10], > 1.26 µM (inactive). In addition, the Ki was > 3.98 µM (inactive) in experiment [11]; > 1.58 µM (inactive) in experiment [12]; > 2.51 µM (inactive) in experiment [13]; 0.0158 µM (active) in experiment [14]; 0.794 µM (active) in [15]; 0.0501 µM (active) in experiment [16]. The inhibition constant (Ki) was 3.98 µM (active) in [17]; 0.00794 µM (active) in experiment [18]; > 1.58 µM (inactive) in experiment [19]; 0.251 µM (active) in experiment [20]; > 1.58 µM (inactive) in experiment [21]; > 0.794 µM (inactive) in experiment [22]. In addition, the Ki in [23] is 0.00794 µM (active); in [24] it was 0.158 µM (active); in [25], > 3.98 µM (inactive); in experiment [26], > 3.98 µM (inactive); in [27], 0.501 µM (active); in [28], > 10 µM (inactive).

On to `O=C(N/N=C/c1ccc(O)cc1O)c1ccc(CN2C(=O)c3cccc4cccc2c34)cc1`, for which, in experiment [29], the EC50 (commonly the concentration at which the effect is half-maximal) was > 85.3 µM (inactive).
